Source: PMC8617681 (Pharmaceuticals, 2021)

Target: T1, human OATP1A2 (Homo sapiens, UniProt P46721)
T1 construct: Werner Siegmund and Dr. Markus Keiser (University of Greifswald); host or cells: HEK293
T1 sequence (P46721 1-670): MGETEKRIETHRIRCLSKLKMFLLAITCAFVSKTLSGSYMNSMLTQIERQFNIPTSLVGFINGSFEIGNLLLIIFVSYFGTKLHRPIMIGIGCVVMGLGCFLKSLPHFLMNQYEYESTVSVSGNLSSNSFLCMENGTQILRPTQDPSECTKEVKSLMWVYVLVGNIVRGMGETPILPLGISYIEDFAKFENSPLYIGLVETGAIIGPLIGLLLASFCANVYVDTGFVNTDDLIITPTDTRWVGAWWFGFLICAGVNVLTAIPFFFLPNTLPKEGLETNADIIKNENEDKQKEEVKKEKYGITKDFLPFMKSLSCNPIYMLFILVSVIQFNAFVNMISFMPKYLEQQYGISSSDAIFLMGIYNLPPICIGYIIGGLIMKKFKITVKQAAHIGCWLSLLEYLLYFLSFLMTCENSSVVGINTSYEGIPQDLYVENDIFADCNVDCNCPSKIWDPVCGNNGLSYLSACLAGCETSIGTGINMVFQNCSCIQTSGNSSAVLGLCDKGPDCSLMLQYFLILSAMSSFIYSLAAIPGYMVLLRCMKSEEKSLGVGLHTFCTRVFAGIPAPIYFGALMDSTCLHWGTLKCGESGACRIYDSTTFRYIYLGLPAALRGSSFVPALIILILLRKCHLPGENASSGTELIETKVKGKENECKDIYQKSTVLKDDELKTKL
Experiment: Cellular uptake in OATP1A2-overexpressing HEK293 cells
Assay type: in vitro ADME
Settings: 5 µM, 2.5 min incubation, HEK293 OATP1A2
Protocol: HEK293 cells, vector-transfected or human (h)SLCO1A2, hSLCO1B1 or hSLCO1B3 cDNA-transfected were kind gifts from Prof. Werner Siegmund and Dr. Markus Keiser (University of Greifswald, Greifswald, Germany). All the HEK293 cell lines were maintained in DMEM supplemented with 10% (v/v) FBS, 1% penicillin–streptomycin mix at 37 °C in 5% (v/v) CO2 and 500 μg/mL G418. Cells were first seeded in 12-well plates [coated with 50 mg/L poly (l-lysine) and 50 mg/L poly (l-ornithine)] at a density of 1.0 × 10^5 cells/well. For the uptake study, in order to induce the expression of OATP transporters, the cell culture medium was replaced with culture medium supplemented with 5 mM sodium butyrate 24 h before performing the uptake assay.
The uptake transport study was performed as described previously. […] The Krebs–Henseleit solution was prepared from Krebs–Henseleit-buffer modified powder and supplemented with 25 mM NaHCO3 and 2.5 mM CaCl2 adjusted to pH 6.4 with 1 M HCL. At 2.5 min, the incubation buffer was removed, and uptake was terminated by adding 1 mL of ice-cold Krebs–Henseleit buffer, followed by two times washing with 1 mL of ice-cold Krebs–Henseleit buffer. […] The cellular protein amount was determined by the Bradford method using 10 μL of the cell lysates with bovine serum albumin as a standard.

SMILES: COc1ccc(CN2C3CC2CN(c2ccc(-c4cc(OCC(C)(C)O)cn5ncc(C#N)c45)cn2)C3)cn1 [selpercatinib]
- uptake compared to vector control cells: did not observe any significant increase in the uptake
